“And” between values parts separate entries of the source, which are not always exact repeats. Equal values may be shown once.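 Method: 48-hour compound exposure of cells in 96-well plates, five concentrations, linear interpolation of endpoints. GI50 is the concentration that inhibits growth by half. TGI denotes the concentration required for complete inhibition of growth.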
Legend:
Experiment in all cases: growth of human tumour cells (NCI), 48 h
UACC-257 melanoma = test system: UACC-257 melanoma
MOLT-4 leukemia = test system: MOLT-4 leukemia
UACC-62 melanoma = test system: UACC-62 melanoma
SK-OV-3 ovarian = test system: SK-OV-3 ovarian
A549 NSCLC = test system: A549 NSCLC
HCT-116 colon = test system: HCT-116 colon
OVCAR-8 ovarian = test system: OVCAR-8 ovarian
U251 CNS = test system: U251 CNS
CCRF-CEM leukemia = test system: CCRF-CEM leukemia
HL-60(TB) leukemia = test system: HL-60(TB) leukemia
COLO 205 colon = test system: COLO 205 colon
IGROV1 ovarian = test system: IGROV1 ovarian
SF-539 CNS = test system: SF-539 CNS
LOX IMVI melanoma = test system: LOX IMVI melanoma
SNB-75 CNS = test system: SNB-75 CNS
KM12 colon = test system: KM12 colon
HOP-92 NSCLC = test system: HOP-92 NSCLC
NCI-H226 lung = test system: NCI-H226 lung
T-47D breast = test system: T-47D breast

Row | Compound | TGI (UACC-257 melanoma) [µM] | TGI (MOLT-4 leukemia) | TGI (UACC-62 melanoma) [µM] | TGI (SK-OV-3 ovarian) [µM] | TGI (A549 NSCLC) [µM] | TGI (HCT-116 colon) [µM] | TGI (OVCAR-8 ovarian) [µM] | TGI (U251 CNS) [µM] | TGI (CCRF-CEM leukemia) | TGI (HL-60(TB) leukemia) | TGI (COLO 205 colon) [µM] | TGI (IGROV1 ovarian) [µM] | TGI (SF-539 CNS) [µM] | TGI (LOX IMVI melanoma) [µM] | TGI (SNB-75 CNS) [µM] | TGI (KM12 colon) [µM] | TGI (HOP-92 NSCLC) [µM] | TGI (NCI-H226 lung) [µM] | GI50 (CCRF-CEM leukemia) [µM] | TGI (T-47D breast) [µM]
1 | O=C(Nc1ccc(Cl)cc1)C(=O)C(C(=O)c1ccccc1-c1ccccc1)C1OC(=O)c2ccccc21 (stereo not given) | 61.3 | > 100 µM | 29.5 | 64.3 | 50.7 | 32.1 | 29.3 | 27.8 | 58 µM | 53.5 µM | 44.4 | > 100 | 58.4 | 36 | 93.3 | 39.4 | 65.6 | 24 | – | –
2 | COC(=O)C(C)NP(=O)(N1CC1)N1CC1 (stereo not given) | > 100 | > 100 µM | > 100 | > 100 | > 100 | – | > 100 | > 100 | > 100 µM | > 100 µM | > 100 | > 100 | > 100 | > 100 | > 100 | > 100 | – | – | – | –
3 | Cc1ccc2nc(CN3CCCC(O)C3)cc(=O)n2c1 (stereo not given) | > 100 | > 100 µM | > 100 | > 100 | > 100 | > 100 | > 100 | > 100 | > 100 µM | > 100 µM | > 100 | > 100 | > 100 | > 100 | > 100 | > 100 | > 100 | > 100 | – | –
4 | COC1CC(C)C(OC)C2=CC(=O)C=C(NC(=O)/C(C)=C/C=C\C(C)C(OC(N)=O)/C(C)=C\C(C)C1OC)C2=O (stereo not given) | 1.8 | 1.04 µM | 14.8 | 2.81 | 31.4 | 1.51 | 18.3 | 11 | 1.05 µM | 1.13 µM | 3.19 | 17.8 | 1.04 | 3.66 | 16.1 | 1.43 | 10.9 | 22.4 | 0.0706 | –
5 | O=C(O)c1ccc(P(=O)(O)c2ccc(C(=O)O)cc2Br)c(Br)c1 | > 100 | > 100 µM | > 100 | > 100 | > 100 | > 100 | > 100 | – | – | > 100 µM | > 100 | > 100 | > 100 | > 100 | > 100 | > 100 | > 100 | > 100 | – | –
6 | O=C1c2ccccc2C(O)(C(=O)O)C1(O)CC=C(Cl)Cl (stereo not given) | > 125 | > 125 µM | > 125 | > 125 | > 125 | > 125 | > 125 | > 125 | > 125 µM | > 125 µM | > 125 | > 125 | > 125 | > 125 | > 125 | > 125 | > 117 | > 125 | – | –
7 | COc1cc(C2SCC(=O)N2c2ccccc2Cl)cc(OC)c1OC (stereo not given) | > 100 | – | > 100 | > 100 | > 100 | > 100 | > 100 | > 100 | > 100 µM | > 100 µM | > 100 | > 100 | > 100 | > 100 | – | > 100 | > 100 | > 100 | – | –
8 | O=C1CC(CC(O)[C@@H]2CCCC[C@@H]2O)CC(=O)N1c1ccccc1 (stereo not given in full) | > 100 | > 100 µM | > 100 | – | > 100 | > 100 | > 100 | > 100 | > 100 µM | > 100 µM | – | > 100 | > 100 | > 100 | > 100 | > 100 | > 100 | > 100 | – | –
9 | Cc1csc2nc3c(cnn3C)c(=S)n12 | > 100 | > 100 µM | > 100 | > 100 | > 100 | > 100 | > 100 | > 100 | > 100 µM | – | > 10 | > 100 | > 100 | > 100 | > 100 | > 100 | – | – | – | > 10
10 | COc1ccc([N+]2=NC(c3ccc([N+](=O)[O-])cc3)=NN(c3ccccc3)C2)cc1 | > 100 | 74.4 µM and > 100 µM | – | – | > 100 | > 100 | > 100 | > 100 | 92.8 µM and 52.1 µM | 83.2 µM and 69.3 µM | > 100 | > 100 | – | > 100 | – | > 100 | – | > 100 | – | –
11 | Ic1ncnc2c1ncn2C1CCCO1 (stereo not given) | > 100 | > 100 µM | > 100 | > 100 | > 100 | > 100 | > 100 | > 100 | > 100 µM | > 100 µM | > 100 | > 100 | > 100 | > 100 | > 100 | > 100 | > 100 | > 100 | – | –
12 | C[C@]12C[C@H](c3ccccc3)Nc3ccccc3N1C(c1ccccc1)=NO2 | > 100 | 78.8 µM | > 100 | > 100 | > 100 | > 100 | > 100 | > 100 | > 100 µM | > 100 µM | > 100 | > 100 | > 100 | – | > 100 | > 100 | > 100 | > 100 | – | –
